Laboratory results from patent US20260227408A1, “Compositions and Methods for Modulation of Immune Responses” (Flagship Pioneering Innovations VI, LLC, priority 2022, published 2026).

Assays:
[1] = system: Raji cells (human B cell lymphoma); assay: pooled CRISPR KO screen: Raji cell killing by primary NK cells; format: cell-based; settings: CRISPR KO of the protein in Raji cells, 24 hours co-culture with primary NK cells; for co-stimulatory effect on NK cytotoxicity (loss of function inhibits Raji cell killing): Example 4; for inhibitory effect on NK cytotoxicity (loss of function potentiates Raji cell killing): Example 5
Protocol: CRISPR system was used to generate a pooled KO library comprising 4,708 individual novel proteins within 2,127 lncRNAs and 998 known proteins in Raji cells (human B cell lymphoma). To understand the role of these proteins in modulation of NK cell cytotoxicity we conducted a cell killing assay using primary human NK cells. We examined the change in the initial library representation in Raji cells with the library representation after 24 hours of co-incubation with NK cells. We used known regulators of NK cell cytotoxicity as reference to establish hit significance.
CRISPR KO generation. CRISPR guide RNA library has been designed at ProFound Therapeutics to target 4,708 distinct predicted novel proteins localized within 2,127 lncRNA, 998 known proteins, including positive (inhibitors, for example B2M, TAP1, TAP2, HLA-DM) and negative (co-stimulators, for example, ICAM1, FAS, IL7, DGKE) of NK cell function, and 900 neutral controls (non-targeting and intergenic guide RNAs). The CRISPR guide RNA library was packaged into lentivirus, transduced into Raji Cas9 line at the MOI of 0.3 and selected using puromycin selection as described in [Sanjana N E, Shalem O, Zhang F. Nat. Methods. 2014 August; 11(8):783-4.
NK isolation and expansion. Primary human NK cells were isolated from frozen PBMCs using EasySep human NK cell isolation kit (StemCell, catalog #17955). Primary human NK cells were expanded using immunoCult NK cell expansion kit (StemCell, catalog #100-0711) following manufacturer protocol.
Screen setup. The screen was performed using 4 biological replicates. The NK cytotoxicity assay was performed by co-culturing 20 million Raji CRISPR KO library cells with 60 million primary NK cells for 24 hours in T75 tissue culture flask. NK cells were removed using positive CD56 selection kit (StemCell, catalog #17855). Dead cells were removed using EasySep dead cell removal (Annexin V) kit (StemCell, catalog #17899). Remaining Raji CRISPR KO library cells have been processed to extract genomic DNA. NGS library prep and illumina sequencing was performed on these cells and Raji cells prior to exposure to NK as described in [Sanjana N E, Shalem O, Zhang F. Nat. Methods. 2014 August; 11(8):783-4.
Data analysis. Screen analysis and interpretation was performed using ProFound Tx custom data analysis tools and confirmed with MAGeCK-VISPR as described in [Li W, Koster J, Xu H, Chen C H, Xiao T, Brown M, Liu S. Genome Biology 2015(281)].
Data analysis. Screen analysis and interpretation has been performed using ProFound Tx custom data analysis tools and confirmed with MAGeCK-VISPR as described in [Li W, Koster J, Xu H, Chen C H, Xiao T, Brown M, Liu S. Genome Biology 2015(281)].

[2] = system: Interferon Regulatory Factor (IRF) pathway in THP-1 dual reporter cells; assay: THP-1 dual reporter assay (IRF-Lucia luciferase) with TLR agonists; format: cell-based
Protocol: (§1) To determine the effect of the Target Protein on TLR activity, the Target Protein, irrelevant proteins and controls were applied+/−established TLR agonists to a commercial reporter cell line which monitors the two main signal transduction pathways that respond to TLR activation. To determine which immune cells are most responsive to the Target Proteins, the Target Proteins were applied to Peripheral Blood Mononuclear Cells (PBMCs) and then 24 hours later the PBMCs were subjected to single cell RNA-seq using cell hashing.
Dual Reporter Assay: From example: NF-kB-SEAP and IRF-Lucia luciferase reporter monocyte (THP1) cells (InvivoGen) are cultured in RPMI 1640 media supplemented with HEPES buffer (10 mM), sodium pyruvate (1 mM), glucose (4.5 g/L), fetal bovine serum (10%), penicillin (100 U/mL), streptomycin ([…]), and 2-mercaptoethanol (0.05 mM). THP1 cells are treated with 100 ng/mL LPS (Sigma-Aldrich) for 24 hrs, the target protein (final conc. 10 μM), or left untreated.
After treatment, THP1 cells are cultured for 24 hrs and then assayed for reporter activity. Both reporter proteins are measurable in the cell culture supernatant when using QUANTI-Blue (InvivoGen), a SEAP detection reagent, and QUANTI-Luc (InvivoGen), a luciferase detection reagent. QUANTI-Blue is a colorimetric enzyme assay developed to determine any alkaline phosphatase activity in a biological sample, such as cell culture supernatant. QUANTI-Luc is a lyophilized assay reagent containing all the components required to quantitatively measure the activity of Lucia Luciferase other coelenterazine-utilizing luciferases. Increased reporter activity after treatment with target protein is observed in cells where the target protein is immune stimulating. Additionally, decreased reporter activity after treatment with the target protein is observed in cells where the target protein is immune dampening.

[3] = system: Peripheral Blood Mononuclear Cells (PBMCs); assay: single cell RNA-seq of PBMCs treated with target protein; format: cell-based, human; settings: 24 hours, vs scrambled protein control, FIG. 5A, 5B
Protocol: as §1
scRNA-seq: From example: Shifts in cell populations after treatment with Target Proteins are assessed by single cell RNA-seq (scRNA-seq). Target proteins (e.g., listed in the Sequence Listing) are synthesized through Fluorenylmethyloxycarbonyl (Fmoc) protection group chemistry using Solid Phase Peptide Synthesis (SPPS). Human primary blood mononuclear cells are seeded at […] in each well of 12-well plate with 1 ml of RPMI-1640 (10% FBS). […]
Post sequencing, reads are aligned to the human reference genome (GENCODE34/GRCH38). Reads are demultiplexed using DNA-barcoded antibodies and run through quality control (g. doublets are removed, singlet cells are selected with less than 15% mitochondria contamination at RNA levels and reads contain higher than 500 genes). […]

[4] = 10 μM, 24 hours, vs scramble peptide, FIG. 4

SEQ ID NO: 33482: novel co-stimulatory ligand that potentiates NK-mediated cytotoxicity; lncRNA-encoded protein (VVTGSILLSLPITQHLPLKALPRPGLPPFKMSGSVQDLLLGHIALLGLVQVILPPQPPK; listed as Homo sapiens)
co-stimulatory effect on NK cytotoxicity (loss of function inhibits Raji cell killing) [1]: strong phenotypes

SEQ ID NO: 35586: novel inhibitory ligand that suppresses NK-mediated cytotoxicity; lncRNA encoded protein (MWQNLNGDISSLWVSSLLAFNQLFCLTAAGLGTAQPP; listed as Homo sapiens)
inhibitory effect on NK cytotoxicity (loss of function potentiates Raji cell killing) [1]: strong phenotypes

SEQ ID NO: 37413: Target Protein validated as a modulator of the innate immune response; toll-like receptor (TLR) inhibitor (MAAPSNKTELAWSPRLAA; listed as Homo sapiens)
IRF response, co-treatment with TLR1/2 agonist [2, 4]: inhibited | IRF response, co-treatment with TLR2 agonist [2, 4]: no significant effect | IRF response, co-treatment with TLR3 agonist [2, 4]: no significant effect | IRF response, co-treatment with TLR4 agonist [2, 4]: inhibited | IRF response, co-treatment with TLR5 agonist [2, 4]: no significant effect | IRF response, co-treatment with TLR6/2 agonist [2, 4]: inhibited | IRF response, co-treatment with TLR7 agonist [2, 4]: no significant effect | IRF response, co-treatment with TLR8 agonist [2, 4]: no significant effect | IRF response, co-treatment with TLR9 agonist [2, 4]: no significant effect | IRF signal transduction pathway response from several TLRs ([2]; THP-1 dual reporter cells, FIG. 3, FIG. 4): significantly blocks | relative IRF activity (reporter gene expression) ([2]; increasing peptide concentrations (0, 2.5, 5, 7.5, and 10 PM) in presence of LPS, 24 hours, FIG. 3): inhibition | effect on T-cells, B-cells, and NK-cells (up- and downregulated genes, scRNA-seq) [3]: relatively small effects | effect on active monocytes and dendritic cells (up- and downregulated genes, scRNA-seq) [3]: strongly affected

B1: SEQ ID NO: 36545: novel inhibitory ligand that suppresses NK-mediated cytotoxicity; lncRNA encoded protein (protein, listed as Homo sapiens)
chain: MPEDLLFLDAAAQGLYFMLWLLSFELSVAVSELLRFTGPWRILSYTVHWVLDMQSVPFIAFLENNN
inhibitory effect on NK cytotoxicity (loss of function potentiates Raji cell killing) [1]: strong phenotypes

B2: SEQ ID NO: 35050: novel co-stimulatory ligand that potentiates NK-mediated cytotoxicity; lncRNA-encoded protein (protein, listed as Homo sapiens)
chain: IYAHVGTEESSVVAMFSPQELTGEGMGQDPSLCKASVTVMFQVFLMTVCLYLTVLLTNNLLGSKGQHLLSKAQEEFEEN
co-stimulatory effect on NK cytotoxicity (loss of function inhibits Raji cell killing) [1]: strong phenotypes

B3: SEQ ID NO: 37776: novel co-stimulatory ligand that potentiates NK-mediated cytotoxicity; lncRNA-encoded protein (protein, listed as Homo sapiens)
chain: MACIYPTTFYTSLPTKSLNMGISLTTILILSVAVLLSTAAPPSCRECYQSLHYRGEMQQYFTYHTHIERSCYGNLIEECVESGKSYYKVKNLGVCGSRNGAICPRGKQWLCFTKIGQWGVNTQVLEDIKREQIIAKAKASKPTTPPENRPRHFHSFIQKL
co-stimulatory effect on NK cytotoxicity (loss of function inhibits Raji cell killing) [1]: strong phenotypes

B4: SEQ ID NO: 2013: novel inhibitory ligand that suppresses NK-mediated cytotoxicity; lncRNA encoded protein (protein, listed as Homo sapiens)
chain: MLSEGKPIPRREGKTATTERTFAVPVWKEIGISWRGLASTAGLFKSSTSILEENNADSRKMACHFGMCLAALLIKGKVLFFTF
inhibitory effect on NK cytotoxicity (loss of function potentiates Raji cell killing) [1]: strong phenotypes
